Source: patent US20110014644A1, “METHODS FOR PREDICTING A CANCER PATIENT'S RESPONSE TO ANTIFOLATE CHEMOTHERAPY” (Precision Therapeutics, Inc., priority 2009, published 2011)

Assays:
[1] = tested on: primary cultures of NSCLC specimens; experiment: ChemoFx live cell chemoresponse assay on primary cultures of patient lung cancer specimens; assay type: cell-based, human; details: 65 primary cultures, single agent, 72 hours
Protocol: The ChemoFx™ live cell chemoresponse assay was performed on 65 patient specimens and the cell line A549. The cells were treated with a 10-dose range of pemetrexed for 72 hours before DAPI-nuclear staining and counting. AUC (Area Under Curve) values were calculated and additional statistical analysis was performed on the resulting dose-response curves.
The area under the dose-response curve (AUC) represents the survival fraction of cells in the presence of drug at each of the 10 increasing dose concentrations. There can be certain circumstances when dose-response curves of differing shapes share similar AUCs. Therefore, as a better reflection of sensitivity to drug treatment, an adjusted area under the curve (aAUC) was calculated according to the following formulas. First, local slope (Sd) at each dose point was calculated based on Sd=(CId-1−CId)/unit of dose. Second, slope weight (Wd) at each dose point was calculated based on Wd=1−Sd. Finally, aAUC was computed based on aAUC=Σ Wd CId, where d=1 . . . 10. Mi Z, et al. (2008) Anticancer Res 28: 1733-1740.
Adjusted areas under the curve (aAUC) were calculated for each dose-response curve. The assay results were classified as responsive (R; assay score≦5.34648.0), intermediate responsive (IR; assay score 5.3465-6.5372) or non-responsive (NR; assay score≧6.5373).

[2] = tested on: non-small cell lung carcinoma (NSCLC); details: second-line treatment in the clinical setting, NSCLC patients (Hanna 2004); cited from earlier work
[3] = tested on: A549 cells; experiment: ChemoFx live cell chemoresponse assay on A549 (wash-before-treatment, folic acid supplementation); assay type: cell-based, human
Protocol: The ChemoFx™ live cell chemoresponse assay was performed on 65 patient specimens and the cell line A549. The cells were treated with a 10-dose range of pemetrexed for 72 hours before DAPI-nuclear staining and counting. AUC (Area Under Curve) values were calculated and additional statistical analysis was performed on the resulting dose-response curves. Folic Acid supplementation experiments were conducted. Pure folic acid was purchased from Sigma Aldrich, filtered, and prepared in a 100× concentration using RPMI media. The concentrate was added to RPMI media so that the final concentration of folic acid ranged between 1.5 mg/L and 500 mg/L. The cell line A549 was plated and treated according to the ChemoFx™ assay in the RPMI media containing increasing concentrations of folic acid. A control was also plated and treated at the same time. In order to determine whether or not removal of excess folic acid from growth media affected the outcome of the chemoresponse assay, a Wash Before Treatment (WBT) step was included. Briefly, A549 cells were plated in 5% BEGM growth media and were cultured to the desired confluence. The growth media was then aspirated and the cells washed with 70 μL of PBS. After removal of the PBS, 70 μL of 5% RPMI+EGF (EGF concentration of 10 ng/mL) treatment media was added to the each treatment well. Following the addition of the treatment media, 30 μL of the treatment media was removed leaving a total volume of 40 μL of treatment media per well. Pemetrexed was then prepared using serial dilutions in the treatment media and was applied to the treatment wells. All aspirations and additions of media and wash solutions was performed by an automated liquid handler to avoid harsh pipetting that might dissociate/disrupt cells.

SMILES: Nc1nc2[nH]cc(CCc3ccc(C(=O)N[C@@H](CCC(=O)O)C(=O)O)cc3)c2c(=O)[nH]1 [pemetrexed, Pemetrexed]
- share of primary cultures with intermediate response (IR) ([1]; 2.24 nM to 586 μM, aAUC assay score 5.3465-6.5372): 9.2%
- share of primary cultures non-responsive (NR) ([1]; 2.24 nM to 586 μM, aAUC assay score ≧6.5373): 84.6%
- share of primary cultures that responded (responsive, R) ([1]; ten serial dilutions 2.24 nM to 586 μM, aAUC assay score ≦5.34648.0): 6.2%
- objective response rate (overall population response) [2]: 9.1%
- effect of folic acid on observed activity ([3]; A549, RPMI media with folic acid 1.5 mg/L to 500 mg/L, FIG. 3): could be reversed with folic acid treatment
- effect of wash-before-treatment (WBT) protocol on in vitro response ([3]; A549, with WBT, 5% BEGM to 5% RPMI+EGF, FIG. 1): significantly improved the in vitro response
- response curve without WBT ([3]; A549, without WBT (5% BEGM control)): a typical ChemoFx™ response curve was not obtained
- sensitivity of A549 to treatment ([3]; A549 cultured in 5% BEGM, treated in 5% RPMI+EGF, FIG. 1): good positive control for sensitivity
